Data as given in patent US4022907A, “Pharmaceutical compositions containing 1,3-dithiacycloalkylidene malonates” (Nihon Nohyaku Co. Ltd., priority 1975, dated 1977).

Assays:
[1] = system: thioacetamide-induced hepatotoxicity; experiment: Therapeutic effect against thioacetamide-induced hepatotoxicity, BSP test (rats); type: in vivo, rats (Sprague Dawley strain)
Protocol: In the tests of this Example, TAA was repeatedly administered to animals to prepare test animals suffering from somewhat chronic liver damages, and then the present compounds were administered thereto to know whether or not the compounds were effective against chronic hepatitis.
The degree of the liver damage and the therapeutic effects of the compounds were evaluated according to BSP test. The BSP test is a method in which BSP (sulfobromophthalein sodium), a dye known to be quickly metabolized in and excreted from the liver, is intravenously injected into animals and, after a definite period of time, the blood is taken out to measure the amount of BSP remaining in the plasma. In case the animals are suffering from the liver damage, the dye will remain, according to the degree of the damage, at the stage where a major portion of BSP is metabolized and excreted in the case of normal animals. Five groups of rats (Sprague Dawley strain) were treated as follows:
Group A: The rats were orally administered with 100 mg/kg of thioacetamide,at 3 days intervals for 36 days (12 times of the administration), then were submitted for 10 days to a normal diet.
Group B: The rats were orally administered with 100 mg/kg of thioacetamide at 3 days intervals for 36 days (12 times of the administration), then were submitted for 10 days to the normal diet + 0.2% of compound 4.
Group C: The rats were orally administered with 100 mg/kg of thioacetamide at 3 days intervals for 36 days (12 times of the administration) then were submitted for 10 days to the normal diet + 0.2% of compound 2.
Group D: The rats were orally administered with 100 mg/kg of thioacetamide at 3 days intervals for 36 days((12 times of the administration) then were submitted for 10 days to the normal diet + 0.2% of anethol trithion.
Group E: The rats were submitted to the normal diet as the control.
Five rate were sacrificed from each group at appropriate intervals for BSP (sulfobromophthalein) test, the results of which were shown as amounts (mg) of BSP remaining in 1 dl of plasma.

[2] = system: CCl4-induced hepatotoxicity; experiment: Protection against CCl4-induced hepatotoxicity (mice); type: in vivo, mice (four-week-old male, dd strain); conditions: 250 mg/kg oral, average of 5 to 6 mice; for Liver damage index: CCl4 0.05 ml/kg oral after 6 h, 24 h after CCl4, scale 0 Normal, 2 Slightly recognized, 4 Clearly observable damage, 6 Heavy damage, CCl4 alone 5.2, control 0; for p-GPT: plasma, 24 h after CCl4 0.05 ml/kg oral, values over 1,000 regarded as 1,000, CCl4 alone >1,000, control 35
Text: Carbon tetrachloride (CCl4) administration induces centrilobular necrosis of the liver associated with loss of diphosphopyridine nucleotide, hepatic glycogen, coenzyme A and increase in neutral fat. Release of several enzymes from the hepatocytes, and increase of enzyme activities in the plasma are recognized as the result of the damage of the liver. A suitable means for evaluating the degree of damage induced by CCl4 or the degree of protection afforded by drugs is to study the plasma glutamic-pyruvic transaminase(p-GPT) activity.
Methods: The test compounds were dissolved or suspended in olive oil and administered orally at the dose of 250 mg/kg to the mice (Four-week-old male mice-dd strain). After 6 hours, CCl4 was administered orally (0.05 ml/kg as olive oil solution). Animals were killed 24 hours after CCl4 administration, and the liver was grossly observed. The plasma was obtained by centrifugation. Activities of p-GPT were determined by the method of Reitman and Frankels and expressed in Karmen units. Score for liver damage index was as follows:
Each figure indicates average of 5 to 6 mice. Values of p-GPT over 1,000 Karmen unit regarded as 1,000 for calculation of average for convenience.

[3] = system: alcohol metabolic function of liver; experiment: Effect on concentration of ethylalcohol in the blood (mice); type: in vivo; conditions: 250 mg/kg oral pre-treatment, ethylalcohol 1,000 mg/kg oral after 6 h
Protocol: The test compounds are dissolved or suspended in olive oil and administered orally at the dose of 250 mg/kg to the mice. After 6 hours, 1,000 mg/kg of ethylalcohol was given orally. Blood was taken in a capillary from caudal vein at the time indicated in the results. The plasma was obtained by centrifugation. The concentration of ethylalcohol in the plasma was measured by FID type gas liquid chromatography. Five mice were used for each group.

[4] = system: glucose metabolic function of liver; experiment: Effect on glucose metabolism, blood sugar (mice); type: in vivo; conditions: 250 mg/kg oral pre-treatment, glucose 4.0 g/kg oral after 6 h
Protocol: Methods: The test compounds dissolved in olive oil and administered orally at the dose of 250 mg/kg to the mice. After 6 hours, 4.0 g/kg of glucose was orally administered. The same amount of glucose was given to the control animals. 0.02 ml of blood was taken from caudal vein of the mice at 30, 60, 90 and 120 min. after glucose administration. Blood sugar was measured by the procedure of SomogyiNelson. Number of animals used was 5 to 6 mice for each treatment.

[5] = Acute oral toxicity (LD50) to male mice; conditions: mouse, in vivo
Protocol: For example the LD50 values of the compounds 4, 11 and 17 in Table 1 are more than 5,000 mg/kg. Further, these compounds have no detrimental effects on test animals administered therewith, so far as the doses thereof are within an ordinary administration range.

[6] = 2 days of normal diet + 0.2% compound after 12 TAA administrations, TAA only 12.7±3.7, normal 0.4±0.1
[7] = 5 days of normal diet + 0.2% compound after 12 TAA administrations, TAA only 8.7±1.9
[8] = 10 days of normal diet + 0.2% compound after 12 TAA administrations, TAA only 1.4±0.4, normal 0.6±0.1

COc1ccc(-c2cc(=S)ss2)cc1 [Anetol trithion, anethol trithion, reference compound]
BSP remaining in plasma [1, 6]: 9.7 ± 4.1 mg/dL
BSP remaining in plasma [1, 7]: 7.3 ± 3.4 mg/dL
BSP remaining in plasma [1, 8]: 0.9 ± 0.1 mg/dL
Liver damage index [2]: 1.6
p-GPT [2]: 38 Karmen units

COC(=O)C(C(=O)OC)=C1SCS1 [Compound 1]
Liver damage index [2]: 1.5
p-GPT [2]: 341 Karmen units

CCOC(=O)C(C(=O)OCC)=C1SCS1 [Compound 2]
BSP remaining in plasma [1, 6]: 7.5 ± 1.2 mg/dL
BSP remaining in plasma [1, 7]: 3.8 ± 0.4 mg/dL
BSP remaining in plasma [1, 8]: 0.7 ± 0.1 mg/dL
Liver damage index [2]: 0.3
p-GPT [2]: 29 Karmen units
Concentration of Ethylalcohol in Plasma ([3]; 0 min, control 27 ± 17): 11 ± 4 ppm.
Concentration of Ethylalcohol in Plasma ([3]; 5 min, control 875 ± 203): 714 ± 167 ppm.
Concentration of Ethylalcohol in Plasma ([3]; 15 min, control 810 ± 191): 655 ± 102 ppm.
Concentration of Ethylalcohol in Plasma ([3]; 30 min, control 690 ± 214): 426 ± 101 ppm.
Concentration of Ethylalcohol in Plasma ([3]; 60 min, control 167 ± 76): 15 ± 10 ppm.
Blood Sugar ([4]; 0 min, control 145 ± 11.8): 142 ± 22.8 mg/dL
Blood Sugar ([4]; 30 min, control 311 ± 21.9): 258 ± 17.5 mg/dL
Blood Sugar ([4]; 60 min, control 290 ± 14.6): 229 ± 18.7 mg/dL
Blood Sugar ([4]; 90 min, control 263 ± 13.1): 183 ± 18.1 mg/dL
Blood Sugar ([4]; 120 min, control 251 ± 13.5): 150 ± 20.4 mg/dL

CCCOC(=O)C(C(=O)OCCC)=C1SCS1 [Compound 3, Di-n-propyl 1,3-dithietan-2-ylidene malonate]
Liver damage index [2]: 0.2
p-GPT [2]: 22 Karmen units

CC(C)OC(=O)C(C(=O)OC(C)C)=C1SCS1 [Compound 4, Diisopropyl 1,3-dithietan-2-ylidene malonate]
LD50 [5]: > 5000 mg/kg
BSP remaining in plasma [1, 6]: 7.1 ± 0.8 mg/dL
BSP remaining in plasma [1, 7]: 3.2 ± 0.6 mg/dL
BSP remaining in plasma [1, 8]: 0.6 ± 0.2 mg/dL
Liver damage index [2]: 0.0
p-GPT [2]: 20 Karmen units
Concentration of Ethylalcohol in Plasma ([3]; 0 min, control 27 ± 17): 10 ± 3 ppm.
Concentration of Ethylalcohol in Plasma ([3]; 5 min, control 875 ± 203): 695 ± 122 ppm.
Concentration of Ethylalcohol in Plasma ([3]; 15 min, control 810 ± 191): 637 ± 113 ppm.
Concentration of Ethylalcohol in Plasma ([3]; 30 min, control 690 ± 214): 410 ± 77 ppm.
Concentration of Ethylalcohol in Plasma ([3]; 60 min, control 167 ± 76): 15 ± 8 ppm.
Blood Sugar ([4]; 0 min, control 145 ± 11.8): 168 ± 20.4 mg/dL
Blood Sugar ([4]; 30 min, control 311 ± 21.9): 280 ± 10.8 mg/dL
Blood Sugar ([4]; 60 min, control 290 ± 14.6): 215 ± 20.1 mg/dL
Blood Sugar ([4]; 90 min, control 263 ± 13.1): 164 ± 16.5 mg/dL
Blood Sugar ([4]; 120 min, control 251 ± 13.5): 165 ± 15.3 mg/dL

CCCCOC(=O)C(C(=O)OCCCC)=C1SCS1 [Compound 5]
Liver damage index [2]: 1.2
p-GPT [2]: 158 Karmen units

CCCCCOC(=O)C(C(=O)OCCCCC)=C1SCS1 [Compound 6]
Liver damage index [2]: 1.2
p-GPT [2]: 167 Karmen units

CCOC(=O)C(C(=O)OC(C)C)=C1SCS1 [Compound 7]
Liver damage index [2]: 0.6
p-GPT [2]: 54 Karmen units

COC(=O)C(C(=O)OC)=C1SCCCS1 [Compound 8]
Liver damage index [2]: 2.8
p-GPT [2]: 437 Karmen units

CCOC(=O)C(C(=O)OCC)=C1SCCCS1 [Compound 9]
Liver damage index [2]: 2.2
p-GPT [2]: 366 Karmen units

CCCOC(=O)C(C(=O)OCCC)=C1SCCCS1 [Compound 10, Di-n-propyl 1,3-dithian-2-ylidene malonate]
Liver damage index [2]: 2.2
p-GPT [2]: 50 Karmen units
Concentration of Ethylalcohol in Plasma ([3]; 0 min, control 27 ± 17): 13 ± 4 ppm.
Concentration of Ethylalcohol in Plasma ([3]; 5 min, control 875 ± 203): 753 ± 78 ppm.
Concentration of Ethylalcohol in Plasma ([3]; 15 min, control 810 ± 191): 698 ± 95 ppm.
Concentration of Ethylalcohol in Plasma ([3]; 30 min, control 690 ± 214): 451 ± 114 ppm.
Concentration of Ethylalcohol in Plasma ([3]; 60 min, control 167 ± 76): 12 ± 11 ppm.
Blood Sugar ([4]; 0 min, control 145 ± 11.8): 148 ± 14.7 mg/dL
Blood Sugar ([4]; 30 min, control 311 ± 21.9): 267 ± 21.2 mg/dL
Blood Sugar ([4]; 60 min, control 290 ± 14.6): 222 ± 18.3 mg/dL
Blood Sugar ([4]; 90 min, control 263 ± 13.1): 162 ± 14.4 mg/dL
Blood Sugar ([4]; 120 min, control 251 ± 13.5): 148 ± 18.8 mg/dL

CC(C)OC(=O)C(C(=O)OC(C)C)=C1SCCCS1 [Compound 11, Diisopropyl 1,3-dithian-2-ylidene malonate]
LD50 [5]: > 5000 mg/kg
Liver damage index [2]: 2.3
p-GPT [2]: 215 Karmen units

CCCCOC(=O)C(C(=O)OCCCC)=C1SCCCS1 [Compound 12]
Liver damage index [2]: 1.8
p-GPT [2]: 284 Karmen units

CCOC(=O)C(C(=O)OC(C)(C)C)=C1SCCCS1 [Compound 13]
Liver damage index [2]: 1.4
p-GPT [2]: 125 Karmen units

COC(=O)C(C(=O)OC)=C1SCCCCS1 [Compound 14]
Liver damage index [2]: 3.5
p-GPT [2]: 762 Karmen units

CCOC(=O)C(C(=O)OCC)=C1SCCCCS1 [Compound 15]
Liver damage index [2]: 3.2
p-GPT [2]: 533 Karmen units

CCCOC(=O)C(C(=O)OCCC)=C1SCCCCS1 [Compound 16]
Liver damage index [2]: 3.0
p-GPT [2]: 710 Karmen units

CC(C)OC(=O)C(C(=O)OC(C)C)=C1SCCCCS1 [Compound 17, diisopropyl 1,3-dithiepan-2-ylidene malonate]
LD50 [5]: > 5000 mg/kg
Liver damage index [2]: 3.6
p-GPT [2]: 688 Karmen units

CCCCOC(=O)C(C(=O)OCCCC)=C1SCCCCS1 [Compound 18]
Liver damage index [2]: 0.5
p-GPT [2]: 41 Karmen units

CCCCCOC(=O)C(C(=O)OCCCCC)=C1SCCCCS1 [Compound 19]
Liver damage index [2]: 0.7
p-GPT [2]: 157 Karmen units

CCOC(=O)C(C(=O)OC(C)CC)=C1SCCCCS1 (stereo not shown) [Compound 20]
Liver damage index [2]: 1.0
p-GPT [2]: 188 Karmen units
Concentration of Ethylalcohol in Plasma ([3]; 0 min, control 27 ± 17): 15 ± 2 ppm.
Concentration of Ethylalcohol in Plasma ([3]; 5 min, control 875 ± 203): 710 ± 134 ppm.
Concentration of Ethylalcohol in Plasma ([3]; 15 min, control 810 ± 191): 652 ± 143 ppm.
Concentration of Ethylalcohol in Plasma ([3]; 30 min, control 690 ± 214): 404 ± 93 ppm.
Concentration of Ethylalcohol in Plasma ([3]; 60 min, control 167 ± 76): 18 ± 6 ppm.

NC(=O)CCCCC1CCSS1 (stereo not shown) [Thioctic acid amide, reference compound]
Liver damage index [2]: 4.8
p-GPT [2]: 763 Karmen units
